Among the data in the SangsterLogP compilation are logP values, retold here.

SMILES strings stand for the structures.

The term logP denotes the decadic logarithm of the partition coefficient of the neutral form, usually between octanol and water. A high value points to higher lipophilicity.

This data set in a line: method code SF-AS, from DOI: 10.1002/jps.2600820804.
Take `O=C(O)c1c(Br)cccc1Br`: the log partition coefficient (logP) was found to be 3.58.
`NC(=O)c1ccccc1[N+](=O)[O-]` registered a lipophilicity (logP) of -0.12.
As for `COC(=O)c1ccccc1I`, the logP turned out to be 2.74.
With `CC(=O)Oc1c(C)cccc1C`, the lipophilicity (logP) worked out at 2.32.
For `COC(=O)c1c(C)cccc1C`, the logP is 2.55.
With `COC(=O)c1cccc(C)c1` the figure was 2.77.
In the case of `COC(=O)c1c(F)cccc1F`, the logP turned out to be 1.96.
The compound `CCc1cccc(OC(C)=O)c1` showed a logP of 2.45.
Take `Oc1c(F)cccc1F`: the logP worked out at 1.96.
`O=C(O)c1c(Cl)cccc1[N+](=O)[O-]` came in with a log partition coefficient (logP) of 1.56.
On to `COC(=O)c1ccc(Br)cc1`, for which the lipophilicity (logP) is 2.95.
In the case of `O=C(O)c1c(F)cccc1F`, the lipophilicity (logP) came out at 1.59.
For `CCc1cccc(CC)c1O` the value was 3.03; for `CCc1cccc(CC)c1OC(C)=O`, 3.4; for `Cc1cccc(C)c1C(=O)O`, 2.21.
Take `COC(=O)c1ccccc1F`: the logP came to 1.82.
For `COC(=O)c1ccc(C)cc1`, the logP was 2.7.
As to `COC(=O)c1c(F)cccc1Cl`, the lipophilicity (logP) was found to be 2.42.
Take `COC(=O)c1c(Cl)cccc1Cl`: the lipophilicity (logP) came out at 2.79.
Regarding `CC(=O)Oc1c(Cl)cccc1Cl`, the logP stood at 2.94.
With `COC(=O)c1ccccc1[N+](=O)[O-]`, the logP worked out at 1.66.
In turn, `Cc1cccc(Cl)c1O` displayed a logP of 2.8.
`COC(=O)c1ccc(F)cc1` came in with a lipophilicity (logP) of 2.28.
In the case of `N#Cc1ccccc1C(N)=O`, the lipophilicity (logP) was 0.
For the compound `COC(=O)c1cccc(Cl)c1`, the logP was 2.85.
Turning to `COC(=O)c1c(Cl)cccc1[N+](=O)[O-]`, the logP worked out at 2.21.
As for `COC(=O)c1cccc([N+](=O)[O-])c1`, the log partition coefficient (logP) was determined as 1.89.
On to `Oc1c(Br)cccc1Br`, for which the logP was 3.36.
For `COc1cccc(OC(C)=O)c1` the value was 1.61.
`CSc1ccccc1C(N)=O` yielded a logP of 0.71.
For `Cc1cccc(Cl)c1C(=O)O`, the logP amounted to 2.31.
With `COC(=O)c1ccccc1OC` the figure was 2.04.
In the case of `O=C(O)c1c(F)cccc1Cl`, the lipophilicity (logP) turned out to be 2.11. The logP values of the last two compounds are within 0.2 log units of each other.
For `CCOc1cccc(OC(C)=O)c1`, the logP worked out at 2.08.
Compound `COC(=O)c1ccc([N+](=O)[O-])cc1` registered a logP of 1.94.
